Experimental data published in ChEMBL document CHEMBL1201862, “PubChem BioAssay data set” (2004).
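Results reflect a 48-hour exposure of cells in 96-well plates to compound at five concentrations. At the GI50, growth is halved.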 Active and inactive are the calls of the source. No stated cut-off is given here; in the data, active = GI50 up to about 1.1 µM and inactive = higher.

Experiments:
Assay in all cases: NCI anticancer screen, dose series, 48 h
BT-549 = tested on: BT-549
HOP-92 = tested on: HOP-92
SK-OV-3 = tested on: SK-OV-3
PC-3 = tested on: PC-3
M14 = tested on: M14
SR = tested on: SR
SNB-75 = tested on: SNB-75
SF-295 = tested on: SF-295
HCT-116 = tested on: HCT-116
Hs-578T = tested on: Hs-578T
HCC 2998 = tested on: HCC 2998
HCT-15 = tested on: HCT-15
TK-10 = tested on: TK-10
EKVX = tested on: EKVX
SK-MEL-2 = tested on: SK-MEL-2
SK-MEL-5 = tested on: SK-MEL-5
COLO 205 = tested on: COLO 205
U-251 = tested on: U-251
A498 = tested on: A498
DU-145 = tested on: DU-145

SMILES	GI50 (BT-549)	GI50 (HOP-92)	GI50 (SK-OV-3)	GI50 (PC-3)	GI50 (M14)	GI50 (SR)	GI50 (SNB-75)	GI50 (SF-295)	GI50 (HCT-116)	GI50 (Hs-578T)	GI50 (HCC 2998)	GI50 (HCT-15)	GI50 (TK-10)	GI50 (EKVX)	GI50 (SK-MEL-2)	GI50 (SK-MEL-5)	GI50 (COLO 205)	GI50 (U-251)	GI50 (A498)	GI50 (DU-145)
CNC(=S)NN=C1NCCCCN1	> 100 µM (inactive)	> 100 µM (inactive)	> 100 µM (inactive)	> 100 µM (inactive)	> 100 µM (inactive)	> 100 µM (inactive)	> 100 µM (inactive)	> 100 µM (inactive)	> 100 µM (inactive)	83.9 µM (inactive)	> 100 µM (inactive)	> 100 µM	> 100 µM (inactive)	> 100 µM (inactive)	> 100 µM (inactive)	> 100 µM (inactive)	> 100 µM (inactive)	> 100 µM (inactive)	> 100 µM (inactive)	–
O=C(/C=C/c1c(O)nc2ccccc2c1O)CC(=O)C(=O)Nc1cccc(O)c1	> 100 µM (inactive)	> 100 µM (inactive)	> 100 µM (inactive)	> 100 µM (inactive)	> 100 µM (inactive)	–	> 100 µM (inactive)	> 100 µM (inactive)	> 100 µM (inactive)	> 100 µM (inactive)	> 100 µM (inactive)	> 100 µM	> 100 µM (inactive)	> 100 µM (inactive)	> 100 µM (inactive)	> 100 µM (inactive)	> 100 µM (inactive)	> 100 µM (inactive)	> 100 µM (inactive)	> 100 µM (inactive)
CCOC(=O)C1(Cc2ccccc2)Cc2cc3c(cc2C1)CCC3	25.2 µM (inactive)	–	35 µM (inactive)	25.7 µM (inactive)	29.5 µM (inactive)	23.9 µM (inactive)	> 10 µM (inactive)	29.4 µM (inactive)	24.3 µM (inactive)	22.3 µM (inactive)	21.4 µM (inactive)	27.7 µM	92.7 µM (inactive)	42.8 µM (inactive)	12.8 µM (inactive)	–	19.3 µM (inactive)	30.8 µM (inactive)	49.4 µM (inactive)	44.6 µM (inactive)
Cc1cc(C)nc(NC(=S)Nc2ccccc2Cl)c1	> 100 µM (inactive)	–	> 100 µM (inactive)	> 100 µM (inactive)	> 100 µM (inactive)	> 100 µM (inactive)	73.1 µM (inactive)	> 100 µM (inactive)	> 100 µM (inactive)	> 100 µM (inactive)	–	> 100 µM	> 100 µM (inactive)	> 100 µM (inactive)	> 100 µM (inactive)	> 100 µM (inactive)	> 100 µM (inactive)	> 100 µM (inactive)	> 100 µM (inactive)	> 100 µM (inactive)
CC(=O)NC1(C)CCC(C(C)(C)NC(C)=O)CC1 (centres undefined)	> 100 µM (inactive)	–	> 100 µM (inactive)	> 100 µM (inactive)	> 100 µM (inactive)	> 100 µM (inactive)	> 100 µM (inactive)	> 100 µM (inactive)	> 100 µM (inactive)	> 100 µM (inactive)	> 100 µM (inactive)	> 100 µM	> 100 µM (inactive)	> 100 µM (inactive)	–	> 100 µM (inactive)	> 100 µM (inactive)	> 100 µM (inactive)	> 100 µM (inactive)	> 100 µM (inactive)
CCN(CC)c1ccc(C2Nc3ccc4ccccc4c3C3=C2C(=O)CCC3)cc1 (centres undefined)	60.8 µM (inactive)	–	38.4 µM (inactive)	39.3 µM (inactive)	> 100 µM (inactive)	–	17.3 µM (inactive)	24.6 µM (inactive)	25.3 µM (inactive)	11.2 µM (inactive)	> 100 µM (inactive)	> 100 µM	–	> 100 µM (inactive)	35.5 µM (inactive)	–	> 100 µM (inactive)	14.9 µM (inactive)	45.4 µM (inactive)	23.9 µM (inactive)
NC1=CN(CCCO)C2=N/C(=C\c3ccco3)C(=O)N12	> 100 µM (inactive)	> 100 µM (inactive)	> 100 µM (inactive)	> 100 µM (inactive)	> 100 µM (inactive)	–	> 100 µM (inactive)	> 100 µM (inactive)	> 100 µM (inactive)	> 100 µM (inactive)	> 100 µM (inactive)	> 100 µM	> 100 µM (inactive)	> 100 µM (inactive)	> 100 µM (inactive)	> 100 µM (inactive)	> 100 µM (inactive)	> 100 µM (inactive)	> 100 µM (inactive)	> 100 µM (inactive)
CCOC(=O)c1cc(C2=C(S)N(CC(C)CC)CC2)c(C(=O)CC)[nH]1 (centres undefined)	19.3 µM (inactive)	19.7 µM (inactive)	23.5 µM (inactive)	19.7 µM (inactive)	–	5.96 µM (inactive)	19.7 µM (inactive)	18.2 µM (inactive)	15.3 µM (inactive)	26.9 µM (inactive)	–	10.2 µM	15.3 µM (inactive)	17.5 µM (inactive)	22.1 µM (inactive)	–	11 µM (inactive)	13.1 µM (inactive)	15.6 µM (inactive)	16.6 µM (inactive)
